The subject of data set [1] is A549-CXCR4-ADRB2 cells. The experiment in a line: Proliferation assay (Prestoblue), A549-CXCR4-ADRB2 cells. The note with it: serum free, 72 hr; for block of CXCL12 effect on cell proliferation: FIGS. 18A-18E, 10 μM (AMD070 1 μM).
Method: A549 parent cells or A549-CXCR4-ADRB2 cells were plated at a density of 1×10^4 cells/well in 96-well plates and incubated in culture medium for 24 hr to allow adherence. […] At the end of incubation, cell proliferation was assessed by using Prestoblue Cell Viability Reagent (Thermo Fisher Scientific) according to the manufacture's instruction.
A549 double negative (RLuc-lucP) or A549-CXCR4-ADRB2 cell lines overexpressing both CXCR4 and ADRB2 plated at a density of 1×10^4 cells/well in 96-well plates and incubated in culture medium for 24 hr to allow adherence. After washing, Serum free RPMI1640±SDF-1α with or without indicated drugs were added and the cells were incubated for 72 hr (96 hr post seeding) at 37° C., 5% CO2. At the end of incubation, cell proliferation was assessed by using Prestoblue Cell Viability Reagent (Thermo Fisher Scientific, Cat. A13262) according to the manufacture's instruction. Briefly, cells were incubated in 1× Prestoblue Cell Viability Reagent for 1 hr at 37° C. Fluorescence was measured at 560 nm excitation and 590 nm emission using Varioskan LUX multimode microplate reader (Thermo Fisher Scientific). The amount of fluorescence detected was proportional to the number of cells within a well. Results are expressed as mean ratio (FluorescenceDrug/FluorescenceVehicle only) from triplicate wells±SEM.
Data set [2] has as its target T1, CXCR4-ADRB2 heteromer (Homo sapiens, UniProt P07550+P61073). Description: Calcium mobilization assay, HL-60 cells endogenously expressing CXCR4 and ADRB2. The class given is cell-based. To be noted: for decrease of IC50 of Ca2+ response upon co-treatment of carvedilol, HL-60: Carvedilol 10 μM.
The test system of data set [3] is MDA-MB-231-CXCR4-ADRB2 cells. Description: MDA-MB-231-CXCR4-ADRB2 orthotopic xenograft, tumor growth. It is filed as in vivo, mouse. To be noted: FIG. 22C; for suppression of tumor growth, single administration: once a day for 4 weeks.
Method: The size of the tumors was calculated by converting the tumor size to 100 on the first day of drug administration (% tumor growth). […] Place the needle point in the pre-administration site (between the nipple 2 and 3) and move it to the right or left to make a wide subcutaneous pocket. The Matrigel Mixture (matrigel: cell suspension=50:50) is injected into the subcutaneous pocket. The animals are placed in a breeding box after confirming that the liquid is not spilled at the injection site. […] The day of drug treatment is defined as Day 1. […] The size of the tumor was calculated by converting the tumor size to 100 on the first day of drug administration.
Data set [4] has as its target T1, CXCR4-ADRB2 heteromer. Description: Calcium mobilization assay, MDA-MB-231 cells co-transduced with CXCR4 and ADRB2. The class given is cell-based. To be noted: for decrease of IC50 of Ca2+ response upon co-administration of Carvedilol / IC50: Table 4; for decrease of IC50 of Ca2+ response upon co-administration of Carvedilol: Carvedilol 600 nM; for IC50: IC50 of Ca2+ response. As for the experimental part:
The next day, the cells were co-transduced with 10 MOI of CXCR4 and 30 MOI of GPCRx. […] Calcium mobilizations were measured using FlexStation 3 Multi-Mode Microplate Reader. The results were normalized for base-line activity. Calcium mobilizations were quantified by calculating the area-under-the-curve (AUC) of each graph.
MDA-MB-231 cells were transduced with adenoviruses encoding CXCR4 only, or CXCR4 and ADRB2.
Calcium mobilization was measured using FlexStation3, and the resulting IC50 values of calcium response were calculated using GraphPad Prism software.
The next day, cells were co-transduced with 10 MOI of CXCR4 and 30 MOI of GPCRx. Adenoviruses encoding HA-VC were used to adjust the total amount of adenoviruses transduced. After 2 days, cells were treated with antagonist with indicated amounts and incubated with Cal 6 (FLIPR® Calcium 6 Assay Kit by Molecular Devices, Cat. R8191) for 2 hr. […] Calcium mobilization was measured using FlexStation 3 Multi-Mode Microplate Reader (Molecular Devices, Sunnyvale, Calif., USA). The results were normalized for base-line activity. […] Data represent three independent experiments (mean±SEM).

Data set [5] addresses T1, CXCR4-ADRB2 heteromer. The experiment in a line: Calcium mobilization assay, U937 cells endogenously expressing CXCR4 and ADRB2. The class given is cell-based. (A change in cytosolic calcium serves as a functional read-out for many receptors and channels.)
Data set [6] addresses T2, CXCR4 (Homo sapiens, UniProt P61073).
T2 construct: expressed in transfected cells; host or cells: MDA-MB-231 (adenoviral transduction)
The experiment in a line: Calcium mobilization assay, MDA-MB-231 cells transduced with CXCR4 only. The class given is cell-based.
Method: The next day, cells were co-transduced with 10 MOI of CXCR4 and 30 MOI of GPCRx. Adenoviruses encoding HA-VC were used to adjust the total amount of adenoviruses transduced. After 2 days, cells were treated with antagonist with indicated amounts and incubated with Cal 6 (FLIPR® Calcium 6 Assay Kit by Molecular Devices, Cat. R8191) for 2 hr. […] The results were normalized for base-line activity. […] Data represent three independent experiments (mean±SEM).

Data set [7] deals with patient derived cells (PDCs) from glioblastoma. The experiment in a line: Survival of patient derived cells (ATPlite). It is filed as cell-based, human. The note with it: PDC expressing CXCR4 and ADRB2; 7 days. As for the experimental part:
Single cell suspensions of resected and dissociated glioblastoma tissues from patients were prepared (provided by Samsung Seoul hospital in Seoul, Korea). These cells were cultured under conditions optimal for propagation and non-differentiation of normal neuronal stem cell. Media were composed serum free Neurobasal media supplemented with basic FGF and EGF.
The effects of GPCRx antagonist on the survival of patient derived cells (PDCs) were assessed using ATPlite (PerkinElmer, Cat. No. 6016739 reagent). ATPlite is an Adenosine Triphospate monitoring system based on firefly luciferase. This luminescence assay is the alternative to colorimetric, fluorometric and radioisotopic assays for the quantitative evaluation of proliferation and cytotoxicity of cultured mammalian cells. Cells were seeded in 384-well plate at 500 cells/well in 40 μL culture media. After overnight growth, the cells were cultured for 7 days in the presence of several dose of GPCRx antagonist or DMSO alone. After a 7-day incubation, 15 μL ATPlite was added into the each well and the plate were shaken for 5 minutes in an orbital shaker at 700 rpm. The luminescent signal was detected within 30 minutes at PerkinElmer TopCount detection instrument. The cell viability was calculated using the equation: Cell viability (%)=(OD of antagonist treatment/OD of DMSO only treatment)×100%.
On the technique in general: ATP-based viability assays read luminescence as a measure of living cells.

Data set [8] concerns A549-CXCR4-ADRB2 cells. The experiment in a line: A549-CXCR4-ADRB2 xenograft, tumor growth. To be noted: 10 mpk; in only 2 doses. The class given is in vivo, mouse. As for the experimental part: The antitumor effect in mice transplanted with A549 cells containing CXCR4-ADRB2 by stably overexpressing both CXCR4 and ADRB2 (“A549-CXCR4-ADRB2 cells”) was evaluated using CXCR4 inhibitors currently under development or on the market. A549-CXCR4-ADRB2 cells (1×10^7 cell/head) were injected subcutaneously in nude mice. […]. The CXCR4 inhibitors were administered once a day for 4 weeks.
Five week-old, female Balb/c-nu/nu mice were obtained from Envigo (France) and maintained in specific pathogen-free animal facility. All protocols for animal use and euthanasia were approved by the Qubest Bio (South Korea) Animal Experimental Ethics Committee based on the Animal Protection Act. […] The tumor growth was monitored every third or fourth day by measuring the length (L) and width (W) of the tumor with an electronic caliper and calculating tumor volume in the basis of the following formula: Volume=0.5 LW^2.
For the antitumor efficacy test using CXCR4 inhibitors, A549-CXCR4-ADRB2 cell line overexpressing CXCR4 and ADRB2 in A549, lung cancer cell line was subcutaneously administered (1×10^7 cell in 100 μL PBS/head) to BALB/c-nu. […] The tumor growth was monitored every third or fourth day by measuring the length (L) and width (W) of the tumor: Volume=0.5 LW^2.

The subject of data set [9] is ERK1/2. The experiment in a line: Western blot of phospho-ERK1/2, MDA-MB-231 cell lines. The class given is cell-based, human. The note with it: for ERK1/2 activation, single agonist: MDA-MB-231 parent, MDA-MB-231-CXCR4 and MDA-MB-231-CXCR4-ADRB2 cells, data not shown. As for the experimental part:
MDA-MB-231 cells and A549 cells, expressing Rluc-luc2P or CXCR4, or containing CXCR4-ADRB2 heteromer, were seeded in 6 well plates at a density of 5×10^5 cells per well. […] Thereafter, each of the sets of cells were harvested and performed western blotting analysis.
Cells were seeded in 6 well plates at a density of 5×10^5 cells per well. […] Thereafter, the cells were harvested using NP-40 lysis buffer (Thermo Fisher Scientific, #FNN0021) supplemented with phosphatase inhibitor cocktail (Roche, #4906845001) and protease inhibitor cocktail (Thermo Fisher Scientific, #A32953). Proteins of cell lysates concentrations were determined by the Bio-Rad protein assay (Bio-Rad, #5000006). 20 μg of protein samples were subjected to reducing SDS-PAGE and transferred to PVDF (Polyvinylidene difluoride) using dry transfer system (Thermo Fisher Scientific, #IB21001). The membranes were blocked with 5% skim milk (BD Difco, #232100) in Tris-Buffered Saline with 1% Tween-twenty for 1 hour and incubated with phospho-ERK1/2 Thr202/Tyr204 (Cell Signaling Technology, #4370) and total-ERK1/2 (Cell Signaling Technology, #4695) antibodies. Antigen-antibody complexes were detected by incubating with horseradish peroxidase coupled secondary antibodies (Cell Signaling Technology) followed by SuperSignal West Femto Maximum Sensitivity Substrate (Thermo Fisher Scientific, #34096). Western blot images were captured and analyzed by iBright Western Blot Imaging System (Thermo Fisher Scientific, #A32752).

Data set [10] relates to ERK1/2. The experiment in a line: Western blot of phospho-ERK1/2, A549 cell lines. The note with it: A549-CXCR4-ADRB2 cells; 10 nM each; 10 minutes. It is filed as cell-based, human. Background: Immunoblotting shows a protein as a band on a membrane.
Method: Cells were seeded in 6 well plates at a density of 5×10^5 cells per well. […] Proteins of cell lysates concentrations were determined by the Bio-Rad protein assay (Bio-Rad, #5000006). 20 μg of protein samples were subjected to reducing SDS-PAGE and transferred to PVDF (Polyvinylidene difluoride) using dry transfer system (Thermo Fisher Scientific, #IB21001). […] Western blot images were captured and analyzed by iBright Western Blot Imaging System (Thermo Fisher Scientific, #A32752).
Data set [11] deals with T1, CXCR4-ADRB2 heteromer. The experiment in a line: Internalization inhibition assay, CXCR4-GFP U-2 OS cells transduced with ADRB2. The note with it: FIG. 8; CXCL12 20 nM or antagonist 10 μM; 20 minutes.
Method: To further study if co-internalization of CXCR4 heterodimer was blocked by partner GPCRx antagonists, internalization inhibition assay was performed. […] If CXCR4 formed heterodimer with GPCRx and co-internalized by partner GPCRx, it can be blocked by GPCRx specific antagonist.
Here, the GPCRx evaluated was ADRB2.
Data set [12] addresses T3, ADRB2 (Homo sapiens, UniProt P07550).
T3 construct: expressed in transfected cells; host or cells: MDA-MB-231 (adenoviral transduction)
The experiment in a line: Calcium mobilization assay, MDA-MB-231 cells transduced with ADRB2 only. It is filed as cell-based. The note with it: FIG. 5B; CXCL12 15 nM, salmeterol 100 nM.

Where a SMILES comes first, the peptide text is derived from it. Bridges are numbered along the chain shown (N, C = ends). [ ]: non-standard residue; d: D form. The star is where a group is joined. 2Nal = N[C@@H](Cc1ccc2ccccc2c1)C(=O)O; Lys(iPr) = CC(C)NCCCC[C@H](N)C(=O)O; Benzoyl(4-F) = O=C(c1ccc(F)cc1)*; Cit = NC(=O)NCCC[C@H](N)C(=O)O

The source of these data is US20220273751A1, “GPCR HETEROMER INHIBITORS AND USES THEREOF” (GPCR THERAPEUTICS, INC., priority 2019, published 2022).

T2 sequence (P61073 whole entry): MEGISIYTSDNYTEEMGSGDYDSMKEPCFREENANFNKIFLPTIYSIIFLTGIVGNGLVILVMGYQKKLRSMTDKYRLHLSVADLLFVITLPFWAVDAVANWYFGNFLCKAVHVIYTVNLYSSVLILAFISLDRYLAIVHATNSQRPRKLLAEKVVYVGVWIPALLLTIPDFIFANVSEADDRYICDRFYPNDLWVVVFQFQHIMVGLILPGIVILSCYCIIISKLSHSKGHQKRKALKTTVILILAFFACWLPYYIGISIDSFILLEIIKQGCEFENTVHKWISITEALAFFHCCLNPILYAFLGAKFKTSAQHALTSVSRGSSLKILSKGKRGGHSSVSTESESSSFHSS

For `NCCCCN(Cc1nc2ccccc2[nH]1)[C@H]1CCCc2cccnc21` [AMD070], the “block of CXCL12 effect on cell proliferation” value (shortened to “block of CXCL12 effect”) in [1] was “blocked the CXCL12 effect”. Also, the “decrease of IC50 of Ca2+ response upon co-treatment of carvedilol, HL-60” value in data set [2] was “about 12.7 fold”. Further, the “inhibition of tumor growth, co-administration with Carvedilol” value in [3] (AMD070 3 or 10 mg/kg with Carvedilol 30 mg/kg) is “effectively inhibited the growth of the tumor”. The “suppression of tumor growth, single administration” value in data set [3] was “limited suppression of tumor growth”.

Turning to `c1cc(CN2CCCNCCNCCCNCC2)ccc1CN1CCCNCCNCCCNCC1` [AMD3100, plerixafor], in data set [1], the “block of CXCL12 effect” value is “blocked the CXCL12 effect”. Also, the “decrease of IC50 of Ca2+ response upon co-treatment of carvedilol, HL-60” value in data set [2] was “about 4.4 fold”. In addition, the “suppression of enhanced calcium signaling, co-administration with carvedilol” value in data set [4] (FIG. 6, AMD3100 10 μM with carvedilol 10 μM) was “greater suppression of the calcium signaling”. Also, the “decrease of IC50 of Ca2+ response upon co-administration of Carvedilol” value in [4] was “about 10.5 fold”. Moreover, in [5] (Carvedilol 10 μM), the “decrease of IC50 of Ca2+ response upon co-treatment of carvedilol, U937” value is on record as “about 6.4 fold”.

In the case of `N=C(N)NCCC[C@H](NC(=O)[C@@H]1CSSC[C@H](NC(=O)[C@H](Cc2ccc3ccccc3c2)NC(=O)[C@H](CCCNC(=N)N)NC(=O)[C@H](CCCNC(=N)N)NC(=O)c2ccc(F)cc2)C(=O)N[C@@H](Cc2ccc(O)cc2)C(=O)N[C@@H](CCCNC(N)=O)C(=O)N[C@@H](CCCCN)C(=O)N[C@H](CCCCN)C(=O)N2CCC[C@H]2C(=O)N[C@@H](Cc2ccc(O)cc2)C(=O)N[C@@H](CCCNC(=N)N)C(=O)N[C@@H](CCCNC(N)=O)C(=O)N1)C(N)=O` [BKT140] ({Benzoyl(4-F)}-RR[2Nal]CY[Cit]K[dK]PYR[Cit]CR-NH2; disulfide 4-13), the “block of CXCL12 effect” value in data set [1] is given as “blocked the CXCL12 effect”. For the same compound, the IC50 (usually the concentration needed to halve the response being measured) came to 579 ± 204 nM in data set [6] (Table 4, cells expressing CXCR4 alone, CXCR4 inhibitor only, read-out: IC50 of Ca2+ response, CXCR4); 1.94 nM in data set [4] (CXCR4 + ADRB2 (+Carvedilol 600 nM), co-treated with Carvedilol 600 nM (its IC90)); 88.7 nM in data set [4] (CXCR4 + ADRB2 (−Carvedilol 600 nM), CXCR4 inhibitor only). For the same compound, the “decrease of IC50 of Ca2+ response upon co-administration of Carvedilol” value in [4] is reported as “about 45.7 fold”.

Regarding `COc1ccccc1OCCNCC(O)COc1cccc2[nH]c3ccccc3c12` (centres unmarked) [Carvedilol], inhibition in [7] was half-maximal at 11700 nM (IC50). Also, in [3], the “suppression of tumor growth, single administration” value is on record as “limited suppression of tumor growth”.

`CC(C)NCCCC[C@H](NC(=O)[C@H]1CCC(=O)N[C@@H](Cc2ccccc2)C(=O)N[C@@H](Cc2ccc(O)cc2)C(=O)N[C@@H](CCCCNC(C)C)C(=O)N[C@H](CCCNC(=N)N)C(=O)N[C@@H](Cc2ccc3ccccc3c2)C(=O)NCC(=O)N1)C(N)=O` [LY2510924] (FY[Lys(iPr)][dR][2Nal]G[dE][Lys(iPr)]-NH2; lactam N-7): the “block of CXCL12 effect” value in data set [1] was “blocked the CXCL12 effect”. Besides, in data set [8], the death of mice is on record as 3 out of 10.

As to `OCc1cc(C(O)CNCCCCCCOCCCCc2ccccc2)ccc1O` (centres unmarked) [salmeterol, Salmeterol], the “ERK1/2 activation, co-stimulation with CXCL12 and salmeterol” value in data set [9] (MDA-MB-231-CXCR4-ADRB2 cells, 10 nM each, 20 minutes) was “synergistically increased”. The “ERK1/2 activation, single agonist” value in data set [9] is “induced ERK activation after 20 minutes”. Besides, the “ERK1/2 phosphorylation, co-stimulation with CXCL12 and salmeterol” value in data set [10] is on record as “significantly activated”.

“CXCL12: C-X-C Motif Chemokine ligand 12, CXCR4 agonist”: the “internalization of CXCR4-GFP with ADRB2, substance alone” value in data set [11] was “induced internalization of CXCR4-GFP with ADRB2”. The “increase of cell proliferation rate” value in data set [1] (CXCL12 100 nM) is given as “about 20%”. The “ERK1/2 activation, single agonist” value in data set [9] is “induced activation of ERK1/2 after 10 minutes”. In addition, the “calcium response, single agonist, cells expressing CXCR4” value in data set [6] (FIG. 5A, CXCL12 15 nM, salmeterol 100 nM) is recorded as “evoked intracellular calcium mobilization”. Besides, in data set [6] (read-out: EC50 concentration against CXCR4), the EC50 is ~15 nM. Also, the “calcium response, single agonist, cells overexpressing ADRB2 alone” value in [12] is “did not induced calcium response”. Moreover, the “calcium response, single agonist, HL-60” value in [2] (FIG. 26B, CXCL12 200 nM, formoterol 10 μM) is on record as “evoked an intercellular calcium mobilization”. In data set [5] (FIG. 26A, CXCL12 200 nM, formoterol 10 μM), the “calcium response, single agonist, U937” value is “evoked an intercellular calcium mobilization”.
